Source: patent publication US12521384B2, “Drug delivery composition using crosslinked hyaluronic acid and manufacturing method therefor” (JP cares, priority 2020, dated 2026)

What was measured:
Sprague-Dawley rats = experiment: Mechanical allodynia degree (threshold), von Frey up-down method, after plantar incision; format: in vivo; conditions: Gb: Ro 0.75% 300 + SC 300 (ropivacaine 2.25 mg); for threshold value (g), group average: once near sciatic nerve
Protocol: Specific pathogen-free (SPF) Sprague-Dawley rats [Cr1:CD (Sprague Dawley)] (Producer: Orient Bio Inc. (322, Galmachi-ro, Jungwon-gu, Seongnam-si, Gyeonggi-do)) were prepared according to the following condition. • (1) Number of animals at acquisition: male 28 rats • (2) Age at acquisition: about 7-week-old • (3) Body weight range at acquisition: 199.29 to 222.35 g • (4) Age at start of administration: about 8-week-old • (5) Body weight range at start of administration: 265.63 to 294.00 g • (6) Number of animals used: 24 rats • (7) Group separation
After disinfecting the left plantar part of the prepared test animals under general anesthesia, the skin and fascia with a length of 1 cm were incised in the longitudinal direction starting from the part 0.5 cm away from the tip of the back of the foot. The sole muscle (plantar muscle) of the incised part was lifted with forceps to separate 1 cm in length. […] All Ga to Gd doses […] were equally administered near the nerve tissue, and the number of animals comprised in the experimental group were 6.
As a method for measuring the degree of mechanical allodynia after preparing the test groups, a white rat was placed in a wire mesh cage with a net eye size of 2×2 mm and acclimatized for 15 minutes or more, and then the continuous reaction was evaluated by an up-down method using 8 consecutive von Frey filaments (1, 2, 4, 6, 8, 15, 26, 60 g, Stoelting, USA) when the movement of the rat became quiet. […] It was progressed as the weak filament was stimulated when the positive reaction was shown by stimulating from the von Frey filament in the center, and the strong filament was stimulated when there was no positive reaction. By the above method, measurement was performed before, and at 1, 2, 4, 8, 24, 48, 72, 120, 168 hours after administration of the test substance. For interpretation of the result of the pain behavior test, the case in that avoidance reaction was shown or the foot was lifted up on the net while in contact with a plastic plate was determined as positive. Stimulation was given twice at an interval of 3-5 minutes, and using the positive threshold among them, a response change curve with time was obtained.
Pain threshold values were measured before and at 1, 2, 4, 8, 24, 48, 72, 120, 168 after administration of the test substance of each animal of the Ga to Gd group test groups, and the average of the threshold values of each test group was calculated. In Table 4 below, the threshold value (g) measured over time of drug administration was shown.

[1] = Drug release behavior of bupivacaine (dialysis bag in PBS, RP-HPLC); format: physicochemical; conditions: 8 hours; PBS 37° C., 100 rpm
Protocol: By mixing the crosslinked hyaluronic acid gels, JPD001, JPD004 and (mixture of JPD001 and JPD004 at a weight ratio of 1:1) comprising the crosslinked hyaluronic acid solid prepared in Example 1 at a content of 2% by weight, which are Samples 1-1, 1-4 and 1-5 of Example 1 of 6 g, respectively, and 0.75% by weight bupivacaine solution 3 g, a drug preparation was prepared. A preparation in which non-crosslinked hyaluronic acid having a molecular weight of 1,500 kDa (repeated unit molecular weight 401.3) 2% by weight and a preparation comprising only the bupivacaine drug were prepared, respectively, as a control group.
The prepared drug preparation was put in a dialysis bag (MWCO: 12 K-14 K Da), separately. Then, the dialysis bag was immersed into a tube with 15 ml phosphate buffer solution. The 50 mL conical tube in which the immersed dialysis bag was put was placed in a shaking tank maintained at 37° C. and shaken at 100 rpm horizontally. Then, at scheduled time intervals, a release medium (PBS) aliquot of 1.5 mL was collected and the entire release medium was replaced with new PBS to maintain a sink condition. Quantification of the released bupivacaine was determined by reverse-phase high-performance liquid chromatography (RP-HPLC) using a ZORBAX Eclipse XDB C18 column (4.6 mm×250 mm, 5 μm) and acetonitrile/pH 8.0 buffer (60:40, v/v) for 10 minutes or more.

| SMILES | time at which the pain was completely recovered (Sprague-Dawley rats) [h] | threshold value (g), group average (Sprague-Dawley rats; 0 hr (before administration)) [g] | threshold value (g), group average (Sprague-Dawley rats; 1 hr) [g] | threshold value (g), group average (Sprague-Dawley rats; 2 hr) [g] | threshold value (g), group average (Sprague-Dawley rats; 4 hr) [g] | threshold value (g), group average (Sprague-Dawley rats; 8 hr) [g] | threshold value (g), group average (Sprague-Dawley rats; 24 hr) [g] | threshold value (g), group average (Sprague-Dawley rats; 48 hr) [g] | threshold value (g), group average (Sprague-Dawley rats; 72 hr) [g] | threshold value (g), group average (Sprague-Dawley rats; 120 hr) [g] | threshold value (g), group average (Sprague-Dawley rats; 168 hr) [g] | cumulative release amount of bupivacaine [1] [%] |
| --- | --- | --- | --- | --- | --- | --- | --- | --- | --- | --- | --- | --- |
| CCCN1CCCC[C@H]1C(=O)Nc1c(C)cccc1C [Ropivacaine, ropivacaine] | 120 | 60 | 60 | 60 | 37.3 | 31.7 | 28.0 | 17.5 | 29.8 | 60 | 60 | – |
| CCCCN1CCCCC1C(=O)Nc1c(C)cccc1C (stereo not drawn) [bupivacaine] | – | – | – | – | – | – | – | – | – | – | – | 99 |
